Assay results taken from patent US20090253745A1, “MODULATORS OF OCULAR OXIDATIVE STRESS” (SIRION THERAPEUTICS, INC., priority 2007, published 2009).
Blank lines part the entries; values can stand above or below the molecule they belong to.

Experiments:
[1] = tested on: intact lenses dissected from wild-type mouse eyeglobes; assay: Ex vivo lens toxicity test, isolated lenses incubated 2 days; settings: 8 mM, 37 C, positive control for lens toxicity
Protocol: (§1) FIG. 3. Ex vivo lens toxicity test of TAPP1. The eyeglobes of mice (aged 42 days) were cultured overnight either with control solution (media containing 45% β-cyclodextrin) or TAPP1 (TAPP1 in media containing 45% β-cyclodextrin), at 37° C. overnight, and in 95% air/5% CO2. […] To determine the effects of TAPP1 on isolated lenses, intact lenses were dissected from wild-type mouse eyeglobes, and incubated in DMEM media in a 96 well tissue culture plate. Groups of 3-6 lenses were incubated in 200 μl of media alone (negative control), 4% (2-hydroxypropyl)-β-cyclodextrin (carrier control), 8 mM hydrogen peroxide (H2O2, positive control for lens toxicity), 4 mM TAPP1-O (free radical form), 4 mM TAPP1-R (reduced form), and 4 mM of the two products of TAPP1-R hydrolysis (HP-1 and HP-2), respectively. β-cyclodextrin was included as a carrier control because all of the stock solutions contained 45% (2-hydroxypropyl)-β-cyclodextrin. The samples were incubated in 5% CO2 incubator at 37 C for 2 days.
(§2) The TAPP compositions are intended for topical delivery to the anterior portion of the eye. […] Morphological or anatomical effects are determined by comparison of TAPP-treated samples to samples incubated with either the TAPP vehicle or samples which are exposed (10 min treatment) to 100% ethanol (a positive control for lens toxicity). […]

[2] = tested on: oxidation of ABTS to ABTS^•+ radical cation by metmyoglobin; assay: In vitro anti-oxidant assay: inhibition of metmyoglobin-mediated oxidation of ABTS to ABTS•+ (absorbance at 750 nm); assay type: biochemical
[3] = Pharmacokinetics and ocular tissue distribution of total radioactivity after single topical dose in rabbit; assay type: in vivo, New Zealand White rabbits
Protocol: (§3) FIG. 14. Pharmacokinetics and ocular tissue distribution of total radioactivity following single topical dose administration of [^14C]Compound 14 in rabbit. Four New Zealand White rabbits, age 3-4 months, weight 2.7 to 3.2 kg were used for this study. The rabbits were anesthetized and drug was administered as described above. At each specified time post dosing (0.5, 1, 2, and 4 hr), blood was collected from the ear vein of one rabbit and recovered serum volume was recorded. Rabbits were sacrificed by asphyxiation and both eyeballs were enucleated. Each eyeball was rinsed in 10 ml fresh PBS to wash off unabsorbed drug. The following tissues were harvested from each eye: anterior segment, lens, vitreous body, retina and posterior segment (without retina). Total radioactivity of each tissue and in serum was determined using a liquid scintillation analyzer (Packard Tri-Carb 2100TR). CPM was converted to DPM, and quantity of the drug (pmole) absorbed in each tissue was calculated based on specific activity (average DPM in tissues from left and right eyes). The serum level of the drug was determined as concentration (pmole/ml). [^14C]Compound 14 was rapidly taken into ocular tissues (within ˜15 min) and peak drug concentration in all tissues occurred at ˜0.5 hr.
as §3, with “Four” for “FIG. 14. Pharmacokinetics and ocular tissue distribution of total radioactivity following single topical dose administration of [^14C]Compound 14 in rabbit. Four”, “and an ophthalmic formulation of Compound 14” for “and drug”, “administered topically to the eye.” for “administered as described above.”

[4] = Pharmacokinetics and ocular tissue distribution of total radioactivity after single topical dose in mice; assay type: in vivo, ABCA4+/−/SOD+/− mice
Protocol: (§4) FIG. 13. Pharmacokinetics and ocular tissue distribution of total radioactivity following single topical dose administration of [^14C]Compound 14 in mice. Seven ABCA4+/−/SOD+/− mice were used for this study. The mice were anesthetized and drug was administered as described above. At each specified time post dosing (0 min, 15 min, 30 min, 1 hr, 2 hr, 4 hr and 6 hr), one mouse was sacrificed by cervical dislocation and both eyeballs were enucleated. Each eyeball was rinsed in 1 ml fresh PBS to wash off unabsorbed drug. The right eye was analyzed intact. From the left eye, the following tissues were harvested: lens, anterior segment, retina and posterior segment. Total radioactivity of all tissues was determined using a liquid scintillation analyzer. […] Peak drug concentration in all tissues occurred at ˜1 hr.
as §4, with “Seven” for “FIG. 13. Pharmacokinetics and ocular tissue distribution of total radioactivity following single topical dose administration of [^14C]Compound 14 in mice. Seven”, “and an ophthalmic formulation of Compound 14, prepared as described above,” for “and drug”, “administered topically to the eye.” for “administered as described above.”

eyeglobes of mice = assay: Ex vivo lens toxicity test, whole eyeglobes cultured overnight; settings: brief treatment (10 min) with 100% ethanol, positive control
Protocol: as §1, §2

SMILES: OO [Compound H2O2, hydrogen peroxide]
cataract in isolated lenses [1]: caused obvious cataract

IC50 ([2]; 0-500 μM compound, 15 μM ABTS, 2.5 μM metmyoglobin, 80 μM hydrogen peroxide, room temperature): ~10 µM | amount in vitreous body [3]: intermediate amount | ocular tissues with the highest recovery [3]: anterior and posterior segments | recovery in retina and lens, lower than in anterior and posterior segments [3]: approximately 10 fold | time of peak drug concentration in all tissues [3]: ~0.5 h | time until uptake into ocular tissues [3]: ≤ 15 min | ocular tissues with lower concentrations [4]: lens and retina | ocular tissues with the highest concentrations [4]: anterior and posterior segments | time of peak drug concentration in all tissues [4]: ~1 h | time until uptake into ocular tissues [4]: ≤ 15 min
SMILES: CC1(C)CC(OCCCCCC(O)/C=C/C(=O)O)CC(C)(C)N1O (stereo not shown) [[^14C]Compound 14]
dose-response of anti-oxidation activity ([2]; 0, 5, 10, 20, 50, 100, 200 and 500 μM): dose-dependent anti-oxidation activity

SMILES: CCO [ethanol, reference compound]
cataract formation in eyeglobes (eyeglobes of mice): caused cataract formation
